According to patent publication US12227500B2, “Substituted pyrrolo[2,3-b]pyridines for suppressing toxic endoplasmic reticulum stress” (THE TRUSTEES OF COLUMBIA UNIVERSITY IN THE CITY OF NEW YORK, priority 2018, dated 2025):

How the values were obtained:
Test in all cases: Radiolabeled ATP kinase assay, panel of 371 kinases (Table S6)
Format in all cases: biochemical
[1] = target: T1, panel of 371 human kinases (Homo sapiens, UniProt O00311); settings: CDC7/DBF4; 0.1 μM; 10 μM ATP; read-out: % Enzyme Activity (relative to DMSO controls)
T1 construct: purchased Reaction Biology Corp
T1 sequence (O00311 whole entry): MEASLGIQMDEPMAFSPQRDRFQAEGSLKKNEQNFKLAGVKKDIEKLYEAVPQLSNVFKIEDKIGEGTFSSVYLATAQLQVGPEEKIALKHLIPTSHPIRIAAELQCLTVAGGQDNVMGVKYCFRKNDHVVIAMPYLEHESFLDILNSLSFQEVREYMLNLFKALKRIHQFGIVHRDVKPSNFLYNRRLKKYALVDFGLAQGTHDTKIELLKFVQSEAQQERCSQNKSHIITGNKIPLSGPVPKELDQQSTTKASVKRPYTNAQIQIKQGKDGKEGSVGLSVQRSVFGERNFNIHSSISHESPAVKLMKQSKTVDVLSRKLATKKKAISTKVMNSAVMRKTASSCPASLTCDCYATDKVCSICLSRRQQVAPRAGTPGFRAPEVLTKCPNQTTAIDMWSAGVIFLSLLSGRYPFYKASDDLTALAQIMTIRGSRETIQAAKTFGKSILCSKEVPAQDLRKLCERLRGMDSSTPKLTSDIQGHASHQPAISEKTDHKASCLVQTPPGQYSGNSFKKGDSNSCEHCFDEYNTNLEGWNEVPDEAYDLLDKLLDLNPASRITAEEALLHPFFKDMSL
From the text: (§1) ; FIG. 38C). […]. Further targeted analyses, such as genetic knock-down or knock-out, may be warranted to parse the role of these additional kinases in our model of neurodegeneration.

[2] = target: T2, panel of 371 human kinases (Homo sapiens, UniProt O14733); settings: MKK7; 0.1 μM; 10 μM ATP; read-out: % Enzyme Activity (relative to DMSO controls)
T2 construct: purchased Reaction Biology Corp
From the text: as §1

[3] = target: T3, panel of 371 human kinases (Homo sapiens, UniProt P04629); settings: TRKA; 0.1 μM; 10 μM ATP; read-out: % Enzyme Activity (relative to DMSO controls)
T3 construct: purchased Reaction Biology Corp
From the text: as §1

[4] = target: T4, panel of 371 human kinases (Homo sapiens, UniProt P17252); settings: PKCa; 0.1 μM; 10 μM ATP; read-out: % Enzyme Activity (relative to DMSO controls)
T4 construct: purchased Reaction Biology Corp
From the text: as §1

[5] = target: T5, panel of 371 human kinases (Homo sapiens, UniProt P17948); settings: FLT1/VEGFR1; 0.1 μM; 10 μM ATP; read-out: % Enzyme Activity (relative to DMSO controls)
T5 construct: purchased Reaction Biology Corp
From the text: as §1

[6] = target: T6, panel of 371 human kinases (Homo sapiens, UniProt P28482); settings: ERK2/MAPK1; 0.1 μM; 10 μM ATP; read-out: % Enzyme Activity (relative to DMSO controls)
T6 construct: purchased Reaction Biology Corp
T6 sequence (P28482 whole entry): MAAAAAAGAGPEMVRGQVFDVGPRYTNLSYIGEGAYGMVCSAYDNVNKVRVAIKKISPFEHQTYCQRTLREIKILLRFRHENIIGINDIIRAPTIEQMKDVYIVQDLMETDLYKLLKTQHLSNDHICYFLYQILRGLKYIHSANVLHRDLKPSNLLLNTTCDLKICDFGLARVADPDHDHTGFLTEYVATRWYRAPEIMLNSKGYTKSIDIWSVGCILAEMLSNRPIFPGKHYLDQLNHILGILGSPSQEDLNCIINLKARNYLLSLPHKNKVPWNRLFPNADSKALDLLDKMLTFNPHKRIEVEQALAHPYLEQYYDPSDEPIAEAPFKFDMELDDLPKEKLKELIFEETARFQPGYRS
From the text: as §1

[7] = target: T7, panel of 371 human kinases (Homo sapiens, UniProt P29323); settings: EPHB2; 0.1 μM; 10 μM ATP; read-out: % Enzyme Activity (relative to DMSO controls)
T7 construct: purchased Reaction Biology Corp
From the text: as §1

[8] = target: T8, panel of 371 human kinases (Homo sapiens, UniProt P42684); settings: ABL2/ARG; 0.1 μM; 10 μM ATP; read-out: % Enzyme Activity (relative to DMSO controls)
T8 construct: purchased Reaction Biology Corp
From the text: as §1

[9] = target: T9, panel of 371 human kinases (Homo sapiens, UniProt P51955); settings: NEK2; 0.1 μM; 10 μM ATP; read-out: % Enzyme Activity (relative to DMSO controls)
T9 construct: purchased Reaction Biology Corp
From the text: as §1

[10] = target: T10, panel of 371 human kinases (Homo sapiens, UniProt Q00537); settings: CDK17/cyclin Y (PCTK2); 0.1 μM; 10 μM ATP; read-out: % Enzyme Activity (relative to DMSO controls)
T10 construct: purchased Reaction Biology Corp
T10 sequence (Q00537 whole entry): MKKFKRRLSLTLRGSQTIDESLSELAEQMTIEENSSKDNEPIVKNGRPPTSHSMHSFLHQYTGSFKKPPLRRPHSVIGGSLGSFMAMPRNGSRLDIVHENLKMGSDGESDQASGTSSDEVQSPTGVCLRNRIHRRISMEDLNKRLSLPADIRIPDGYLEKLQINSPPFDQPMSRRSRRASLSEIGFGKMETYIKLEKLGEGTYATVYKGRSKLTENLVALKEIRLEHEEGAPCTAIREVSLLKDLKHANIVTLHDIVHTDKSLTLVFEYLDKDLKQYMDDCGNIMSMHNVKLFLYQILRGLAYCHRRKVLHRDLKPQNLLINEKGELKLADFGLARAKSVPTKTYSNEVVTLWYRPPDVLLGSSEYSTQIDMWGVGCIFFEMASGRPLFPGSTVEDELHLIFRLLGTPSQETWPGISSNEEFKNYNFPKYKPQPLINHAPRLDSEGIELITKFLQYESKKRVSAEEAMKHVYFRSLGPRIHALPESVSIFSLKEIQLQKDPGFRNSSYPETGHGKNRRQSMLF
From the text: as §1

[11] = target: T11, panel of 371 human kinases (Homo sapiens, UniProt Q08881); settings: ITK; 0.1 μM; 10 μM ATP; read-out: % Enzyme Activity (relative to DMSO controls)
T11 construct: purchased Reaction Biology Corp
From the text: as §1

[12] = target: T12, panel of 371 human kinases (Homo sapiens, UniProt Q13153); settings: PAK1; 0.1 μM; 10 μM ATP; read-out: % Enzyme Activity (relative to DMSO controls)
T12 construct: purchased Reaction Biology Corp
From the text: as §1

[13] = target: T13, panel of 371 human kinases (Homo sapiens, UniProt Q13627); settings: DYRK1/DYRK1A; 0.1 μM; 10 μM ATP; read-out: % Enzyme Activity (relative to DMSO controls)
T13 construct: purchased Reaction Biology Corp
From the text: as §1

[14] = target: T14, panel of 371 human kinases (Homo sapiens, UniProt Q16832); settings: DDR2; 0.1 μM; 10 μM ATP; read-out: % Enzyme Activity (relative to DMSO controls)
T14 construct: purchased Reaction Biology Corp
T14 sequence (Q16832 22-855): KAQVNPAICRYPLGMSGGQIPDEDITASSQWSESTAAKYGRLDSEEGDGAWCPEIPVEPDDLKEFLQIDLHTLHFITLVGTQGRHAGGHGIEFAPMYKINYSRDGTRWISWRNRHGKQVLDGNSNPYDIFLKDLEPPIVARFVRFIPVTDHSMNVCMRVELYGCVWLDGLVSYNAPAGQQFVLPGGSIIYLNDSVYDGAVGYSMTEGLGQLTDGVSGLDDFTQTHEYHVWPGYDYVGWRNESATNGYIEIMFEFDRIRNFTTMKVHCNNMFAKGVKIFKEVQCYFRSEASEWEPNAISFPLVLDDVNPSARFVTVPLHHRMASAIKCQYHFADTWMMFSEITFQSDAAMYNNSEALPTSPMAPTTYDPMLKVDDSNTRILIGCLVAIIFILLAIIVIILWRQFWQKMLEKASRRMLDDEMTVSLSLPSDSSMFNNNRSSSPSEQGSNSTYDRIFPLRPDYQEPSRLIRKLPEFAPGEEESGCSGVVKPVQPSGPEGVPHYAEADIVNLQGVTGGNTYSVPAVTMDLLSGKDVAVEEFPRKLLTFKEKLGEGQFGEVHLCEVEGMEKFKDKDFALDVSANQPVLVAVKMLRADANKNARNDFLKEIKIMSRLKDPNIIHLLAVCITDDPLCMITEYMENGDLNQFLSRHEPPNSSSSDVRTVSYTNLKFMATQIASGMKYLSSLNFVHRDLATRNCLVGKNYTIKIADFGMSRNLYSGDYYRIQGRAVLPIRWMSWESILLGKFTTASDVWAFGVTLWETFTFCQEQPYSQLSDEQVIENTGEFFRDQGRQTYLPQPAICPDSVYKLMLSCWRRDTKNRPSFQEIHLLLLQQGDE
From the text: as §1

[15] = target: T15, panel of 371 human kinases (Homo sapiens, UniProt Q86YV6); settings: MYLK4; 0.1 μM; 10 μM ATP; read-out: % Enzyme Activity (relative to DMSO controls)
T15 construct: purchased Reaction Biology Corp
From the text: as §1

[16] = target: T16, panel of 371 human kinases (Homo sapiens, UniProt Q8IVH8); settings: for remaining activity at 0.1 µM: GLK/MAP4K3, 10 μM ATP, read-out: % Enzyme Activity (relative to DMSO controls)
T16 construct: purchased Reaction Biology Corp
T16 sequence (Q8IVH8 1-894): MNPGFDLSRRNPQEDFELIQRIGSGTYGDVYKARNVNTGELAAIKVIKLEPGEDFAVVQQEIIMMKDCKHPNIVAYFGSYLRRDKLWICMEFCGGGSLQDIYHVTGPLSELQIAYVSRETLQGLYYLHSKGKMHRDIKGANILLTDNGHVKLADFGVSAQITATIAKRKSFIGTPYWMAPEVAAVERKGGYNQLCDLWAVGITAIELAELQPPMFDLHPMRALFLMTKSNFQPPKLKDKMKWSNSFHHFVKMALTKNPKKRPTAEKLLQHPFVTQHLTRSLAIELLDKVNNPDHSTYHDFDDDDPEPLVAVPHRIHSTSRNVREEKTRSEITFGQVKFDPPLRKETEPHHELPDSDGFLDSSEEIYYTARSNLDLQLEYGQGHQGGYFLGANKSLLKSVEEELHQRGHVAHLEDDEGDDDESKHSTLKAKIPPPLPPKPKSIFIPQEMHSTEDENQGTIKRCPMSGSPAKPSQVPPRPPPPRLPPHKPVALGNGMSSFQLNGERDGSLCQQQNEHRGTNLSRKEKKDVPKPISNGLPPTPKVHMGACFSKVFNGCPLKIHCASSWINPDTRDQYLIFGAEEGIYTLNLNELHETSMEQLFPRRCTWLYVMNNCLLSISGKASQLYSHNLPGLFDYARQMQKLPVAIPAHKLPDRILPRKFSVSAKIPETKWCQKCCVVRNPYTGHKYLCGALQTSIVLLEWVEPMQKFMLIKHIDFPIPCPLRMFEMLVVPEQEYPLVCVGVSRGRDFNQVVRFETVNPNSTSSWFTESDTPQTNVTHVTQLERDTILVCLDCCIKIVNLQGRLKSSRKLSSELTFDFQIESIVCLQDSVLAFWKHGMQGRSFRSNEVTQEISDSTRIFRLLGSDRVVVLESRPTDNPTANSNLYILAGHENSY
From the text: as §1

[17] = target: T17, panel of 371 human kinases (Homo sapiens, UniProt Q9BXA7); settings: STK22D/TSSK1; 0.1 μM; 10 μM ATP; read-out: % Enzyme Activity (relative to DMSO controls)
T17 construct: purchased Reaction Biology Corp
T17 sequence (Q9BXA7 whole entry): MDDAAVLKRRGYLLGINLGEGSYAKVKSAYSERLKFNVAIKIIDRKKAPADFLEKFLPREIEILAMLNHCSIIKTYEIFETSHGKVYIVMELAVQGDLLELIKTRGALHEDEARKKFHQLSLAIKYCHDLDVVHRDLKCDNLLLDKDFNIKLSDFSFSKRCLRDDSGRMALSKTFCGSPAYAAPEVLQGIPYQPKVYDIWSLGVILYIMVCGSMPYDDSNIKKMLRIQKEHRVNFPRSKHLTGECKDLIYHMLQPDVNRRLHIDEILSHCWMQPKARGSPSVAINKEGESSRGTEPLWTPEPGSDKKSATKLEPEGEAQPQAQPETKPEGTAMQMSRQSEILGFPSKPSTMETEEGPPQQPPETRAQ
From the text: as §1

[18] = target: T18, panel of 371 human kinases (Homo sapiens, UniProt Q9Y3S1); settings: WNK2; 0.1 μM; 10 μM ATP; read-out: % Enzyme Activity (relative to DMSO controls)
T18 construct: purchased Reaction Biology Corp
T18 sequence (Q9Y3S1 whole entry): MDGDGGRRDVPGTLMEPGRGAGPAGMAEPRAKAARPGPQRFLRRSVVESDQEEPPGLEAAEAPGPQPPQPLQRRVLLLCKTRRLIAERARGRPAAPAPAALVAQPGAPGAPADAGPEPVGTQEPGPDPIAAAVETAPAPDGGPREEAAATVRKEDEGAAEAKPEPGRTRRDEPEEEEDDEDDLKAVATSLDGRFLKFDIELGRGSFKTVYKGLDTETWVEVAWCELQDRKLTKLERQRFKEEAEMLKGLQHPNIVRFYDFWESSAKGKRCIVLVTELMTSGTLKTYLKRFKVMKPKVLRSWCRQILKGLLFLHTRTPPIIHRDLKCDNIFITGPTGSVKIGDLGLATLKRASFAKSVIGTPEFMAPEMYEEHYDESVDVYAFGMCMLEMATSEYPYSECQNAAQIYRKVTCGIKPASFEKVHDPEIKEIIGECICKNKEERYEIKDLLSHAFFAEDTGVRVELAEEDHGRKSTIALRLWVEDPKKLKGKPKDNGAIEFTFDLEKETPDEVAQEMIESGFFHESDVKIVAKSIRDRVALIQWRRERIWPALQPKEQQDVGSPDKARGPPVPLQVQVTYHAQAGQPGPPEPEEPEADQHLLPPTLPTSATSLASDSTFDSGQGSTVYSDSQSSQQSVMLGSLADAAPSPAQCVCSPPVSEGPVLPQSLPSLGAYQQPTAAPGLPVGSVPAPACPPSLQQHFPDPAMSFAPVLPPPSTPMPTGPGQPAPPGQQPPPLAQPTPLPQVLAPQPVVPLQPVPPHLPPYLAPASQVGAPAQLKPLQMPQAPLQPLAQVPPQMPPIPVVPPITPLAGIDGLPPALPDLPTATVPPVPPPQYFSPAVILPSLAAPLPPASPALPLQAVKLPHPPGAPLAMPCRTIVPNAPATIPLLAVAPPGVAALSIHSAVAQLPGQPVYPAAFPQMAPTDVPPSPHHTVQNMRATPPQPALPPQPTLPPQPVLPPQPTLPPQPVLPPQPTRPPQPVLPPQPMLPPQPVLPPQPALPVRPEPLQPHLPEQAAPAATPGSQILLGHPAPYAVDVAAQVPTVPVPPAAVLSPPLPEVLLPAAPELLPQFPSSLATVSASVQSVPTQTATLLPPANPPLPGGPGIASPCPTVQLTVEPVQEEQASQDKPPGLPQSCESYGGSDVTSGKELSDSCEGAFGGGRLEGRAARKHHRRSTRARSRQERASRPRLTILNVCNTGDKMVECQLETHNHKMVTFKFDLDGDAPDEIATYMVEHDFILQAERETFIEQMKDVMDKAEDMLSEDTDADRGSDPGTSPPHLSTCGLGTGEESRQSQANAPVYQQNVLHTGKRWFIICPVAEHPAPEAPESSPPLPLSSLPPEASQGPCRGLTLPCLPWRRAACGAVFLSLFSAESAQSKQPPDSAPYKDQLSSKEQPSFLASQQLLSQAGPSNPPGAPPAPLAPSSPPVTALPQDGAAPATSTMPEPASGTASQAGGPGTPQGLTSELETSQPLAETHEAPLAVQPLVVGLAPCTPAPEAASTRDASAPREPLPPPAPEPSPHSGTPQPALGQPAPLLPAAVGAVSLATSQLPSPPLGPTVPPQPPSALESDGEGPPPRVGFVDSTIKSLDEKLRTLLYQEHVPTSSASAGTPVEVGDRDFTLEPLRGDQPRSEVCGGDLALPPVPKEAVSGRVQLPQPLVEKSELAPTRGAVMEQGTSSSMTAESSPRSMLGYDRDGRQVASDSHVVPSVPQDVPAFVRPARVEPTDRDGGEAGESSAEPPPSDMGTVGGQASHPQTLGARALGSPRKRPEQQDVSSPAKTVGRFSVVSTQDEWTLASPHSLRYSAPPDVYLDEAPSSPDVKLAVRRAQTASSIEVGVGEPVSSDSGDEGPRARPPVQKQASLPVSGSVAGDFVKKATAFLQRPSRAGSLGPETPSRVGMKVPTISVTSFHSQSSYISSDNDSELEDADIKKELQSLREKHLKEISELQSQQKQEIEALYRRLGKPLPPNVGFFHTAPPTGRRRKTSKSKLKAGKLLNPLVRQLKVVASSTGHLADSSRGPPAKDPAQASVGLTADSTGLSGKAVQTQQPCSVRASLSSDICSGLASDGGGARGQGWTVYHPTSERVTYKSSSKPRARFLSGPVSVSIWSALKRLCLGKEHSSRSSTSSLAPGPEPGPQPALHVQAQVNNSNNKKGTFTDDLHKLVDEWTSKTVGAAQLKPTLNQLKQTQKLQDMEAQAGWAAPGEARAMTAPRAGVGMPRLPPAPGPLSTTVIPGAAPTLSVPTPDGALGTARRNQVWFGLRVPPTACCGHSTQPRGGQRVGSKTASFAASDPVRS
From the text: as §1

Structure (SMILES): CN1CCN(Cc2ccc(-c3cnc4[nH]cc(-c5ccc6[nH]ccc6c5)c4c3)cc2)CC1 [Compound 1, 3-(1H-Indol-5-yl)-5-(4-((4-methylpiperazin-1-yl)methyl)phenyl)-1H-pyrrolo[2,3-b]pyridine, reference compound]
- remaining activity at 0.1 µM [1]: 100%
- remaining activity at 0.1 µM [2]: 99.8%
- remaining activity at 0.1 µM [3]: 69.2%
- remaining activity at 0.1 µM [4]: 91.4%
- remaining activity at 0.1 µM [5]: 88.2%
- remaining activity at 0.1 µM [6]: 104%
- remaining activity at 0.1 µM [7]: 88.6%
- remaining activity at 0.1 µM [8]: 76.8%
- remaining activity at 0.1 µM [9]: 96.2%
- remaining activity at 0.1 µM [10]: 88%
- remaining activity at 0.1 µM [11]: 101%
- remaining activity at 0.1 µM [12]: 85.2%
- remaining activity at 0.1 µM [13]: 52.4%
- remaining activity at 0.1 µM [14]: 102%
- remaining activity at 0.1 µM [15]: 53.6%
- remaining activity at 0.1 µM [16]: 49.2%
- remaining activity at 0.1 µM [17]: 87.2%
- remaining activity at 0.1 µM [18]: 93%

Structure (SMILES): OCCN1CCN(Cc2ccc(-c3cnc4[nH]cc(-c5cccc(Cl)c5)c4c3)cc2)CC1 [Compound 12k, 2-(4-(4-(3-(3-Chlorophenyl)-1H-pyrrolo[2,3-b]pyridin-5-yl)benzyl)piperazin-1-yl)ethan-1-ol]
- remaining activity at 0.1 µM [1]: 98.3%
- remaining activity at 0.1 µM [2]: 105%
- remaining activity at 0.1 µM [3]: 75.4%
- remaining activity at 0.1 µM [4]: 98.5%
- remaining activity at 0.1 µM [5]: 90.9%
- remaining activity at 0.1 µM [6]: 101%
- remaining activity at 0.1 µM [7]: 98.3%
- remaining activity at 0.1 µM [8]: 75.1%
- remaining activity at 0.1 µM [9]: 92%
- remaining activity at 0.1 µM [10]: 74%
- remaining activity at 0.1 µM [11]: 102%
- remaining activity at 0.1 µM [12]: 78.2%
- remaining activity at 0.1 µM [13]: 40.7%
- remaining activity at 0.1 µM [14]: 100%
- remaining activity at 0.1 µM [15]: 37.2%
- fold change in GLK activity following 12k exposure relative to 1 ([16]; 0.025 μM): 6.84 fold
- remaining activity at 0.1 µM [16]: 7.18%
- remaining activity at 0.1 µM [17]: 75.2%
- remaining activity at 0.1 µM [18]: 94.8%
